The source of these data is patent US4036979A, “Compositions containing 4,5,6,7-tetrahydrobenz[b]thien-4-yl-ureas or derivatives and methods of enhancing growth rate” (American Cyanamid Company, priority 1976, dated 1977).

The first assay can be described thus: Mouse Growth Regulant Tests (12-day weight gain over controls, compound in diet). Type of assay: in vivo, CFI female mice. To be noted: Mus musculus, feed or water, 288 h, Table IX; 400 ppm in diet. The protocol: CFI female mice from Carworth Farms are received when they are six weeks old. They are housed ten to a cage in air-conditioned rooms (72° F. to 76° F.) with automatically controlled lights, 14 hours on and 10 hours off. The basal diet used in these studies is Purina Laboratory Chow (see description below), which is supplied ad libitum. Water is also allowed ad libitum.
Thirteen days after arrival, the mice are weighed in groups of ten and assigned at random to the different treatments. Twelve days later the mice are weighed again and the experiment terminated. At least three cages (30 mice) of untreated controls are included in each test. Test data are provided in Tables VI, VII, VIII, and IX below wherein data are reported as percent weight gain over controls. Unless otherwise indicated in these tables, all compounds tested were dl-racemic mixtures. The following is a description of the diet to which the growth promoting compounds were added.
As for `CNC(=O)NC1CCCCc2sccc21` (stereo not drawn) [Table IX: O,H,H,CH3, 1-methyl-3-(5,6,7,8-tetrahydro-4H-cyclohepta[b]thien-4-yl)urea], the change in vivo at 400 ppm was 41%.

The assay is the same for the next values; noted with them: Mus musculus, feed or water, 288 h, Table VI; 50 ppm in diet.
In turn, `CCNC(=O)NC1CCCc2sccc21` (stereo not drawn) [Table VI: O,H,H,H,H,C2H5, 1-ethyl-3-(4,5,6,7-tetrahydrobenzo[b]thien-4-yl)urea] had a change in vivo at 50 ppm of 40.3%.

Regarding `CNC(=O)NC1CCCc2sccc21` (stereo not drawn) [Table VI: O,H,H,H,H,CH3, 1-methyl-3-(4,5,6,7-tetrahydrobenzo[b]thien-4-yl)urea], the change in vivo at 50 ppm was found to be 61.8%.

Still in this assay, the particulars now being: Mus musculus, feed or water, 288 h, Table VI; 200 ppm in diet.
Compound `CCNC(=O)NC1CCCc2sccc21` (stereo not drawn) [Table VI: O,H,H,H,H,C2H5, 1-ethyl-3-(4,5,6,7-tetrahydrobenzo[b]thien-4-yl)urea] gave a change in vivo at 200 ppm of 87.6%. Compound `O=C(NC(=O)C(Cl)(Cl)Cl)NC1CCCc2sccc21` (stereo not drawn) had a change in vivo at 200 ppm of 37.4%.

The assay is the same for the next values; noted with them: Mus musculus, feed or water, 288 h, Table VI; 400 ppm in diet.
In turn, `NC(=S)NC1CCCc2sccc21` (stereo not drawn) [Table VI: S,H,H,H,H,H, 4,5,6,7-tetrahydrobenzo[b]thien-4-yl thiourea] returned a change in vivo at 400 ppm of 11%.

Consider `C=CCNC(=O)NC1CCCc2sccc21` (stereo not drawn) [Table VI: O,H,H,H,H,CH2CHCH2], for which the change in vivo at 400 ppm turned out to be 48.4%. Same read-out and setting: the result for `CCONC(=O)NC1CCCc2sccc21` (stereo not drawn) [Table VI: O,H,H,H,H,OC2H5, 1-ethoxy-3-(4,5,6,7-tetrahydrobenzo[b]-thien-4-yl)urea] reads 61%; that for `O=C(Nc1ccc([N+](=O)[O-])cc1)NC1CCCc2sccc21` (stereo not drawn), 9%; that for `CCNC(=O)NC1CCCc2sccc21` (stereo not drawn) [Table VI: O,H,H,H,H,C2H5, 1-ethyl-3-(4,5,6,7-tetrahydrobenzo[b]thien-4-yl)urea], 87.6%. `O=C(Nc1ccc(Cl)cc1Cl)NC1CCCc2sccc21` (stereo not drawn) showed a change in vivo at 400 ppm of 18%. In turn, `S=C(NCCc1ccccn1)NC1CCCc2sccc21` (stereo not drawn) displayed a change in vivo at 400 ppm of 15%. Compound `C=CCNC(=S)NC1CCCc2sccc21` (stereo not drawn) [Table VI: S,H,H,H,H,CH2CHCH] came in with a change in vivo at 400 ppm of 60%.

`O=C(NC1CCCc2sccc21)NC1CCCc2sccc21` (stereo not drawn) gave a change in vivo at 400 ppm of 43%.

The compound `Cc1csc2c1C(NC(N)=O)CCC2` (stereo not drawn) [Table VI: O,H,CH3,H,H,H, 3-methyl-4,5,6,7-tetrahydrobenzo[b]thien-4-ylurea] had a change in vivo at 400 ppm of 26%. Same read-out and setting: to `O=C(NC1CCCc2sccc21)N1CCCC1` (stereo not drawn) [Table VI: O,H,H,H,CH2CH2CH2CH2] belongs 18%.

`NC(=O)NC1CCCc2sccc21` (single isomer, unassigned; (-)) [Table VI: O,H,H,H,H,H (levorotatory enantiomorph), (-)-4,5,6,7-tetrahydrobenzo[b]-thien-4-ylurea] showed a change in vivo at 400 ppm of 122%. Compound `O=C(Nc1nccs1)NC1CCCc2sccc21` (stereo not drawn) gave a change in vivo at 400 ppm of 11%. Compound `COCNC(=O)NC1CCCc2sccc21` (stereo not drawn) [Table VI: O,H,H,H,H,CH2OCH3, 1-(methoxymethyl)-3-(4,5,6,7-tetrahydrobenzo[b]thien-4-yl)urea] returned a change in vivo at 400 ppm of 102%. Consider `CON(C)C(=S)NC1CCCc2sccc21` (stereo not drawn) [Table VI: S,H,H,H,CH3,OCH3], for which the change in vivo at 400 ppm came to 66%. The same measure, in the same setting: the result for `CNC(=S)NC1CCCc2sc(C)cc21` (stereo not drawn) [Table VI: S,CH3,H,H,CH3,H] reads 88.5%; that for `O=C(NCC(F)(F)F)NC1CCCc2sccc21` (stereo not drawn) [Table VI: O,H,H,H,H,CH2CF3], 19%. On to `O=C(NCCc1ccccc1)NC1CCCc2sccc21` (stereo not drawn) [Table VI: O,H,H,H,H,CH2CH2C6H5, 1-phenethyl-3-(4,5,6,7-tetrahydrobenzo[b]thien-4-yl)urea], for which the change in vivo at 400 ppm worked out at 72.3%. The same measure, in the same setting: to `O=C(NC1CCCc2sccc21)N1CCC2(CC1)C(=O)NCN2c1ccccc1` (stereo not drawn) belongs 14%; to `CCCCN(CCCC)C(=O)NC1CCCc2sccc21` (stereo not drawn) [Table VI: O,H,H,H,n-butyl,n-butyl, 1,1-dibutyl-3-(4,5,6,7-tetrahydrobenzo[b]thien-4-yl)urea], 6%; to `COc1ccc(N2CCN(C(=O)NC3CCCc4sccc43)CC2)cc1` (stereo not drawn), 24%. In the case of `O=C(NC1CCc2ccccc21)NC1CCCc2sccc21` (stereo not drawn), the change in vivo at 400 ppm was found to be 8%. In turn, `CNC(=O)NC1CCCc2sccc21` (stereo not drawn) [Table VI: O,H,H,H,H,CH3, 1-methyl-3-(4,5,6,7-tetrahydrobenzo[b]thien-4-yl)urea] showed a change in vivo at 400 ppm of 134%. Still for that read-out and setting: to `O=C(NC1CCCc2sccc21)N(O)C1CCCCC1` (stereo not drawn) belongs 19%; to `COc1cccc(NC(=O)NC2CCCc3sccc32)c1` (stereo not drawn), 25%; to `C=CCONC(=O)NC1CCCc2sccc21` (stereo not drawn) [Table VI: O,H,H,H,H,OCH2CHCH2], 5%.

In turn, `CNC(=O)NC1(C)CCCc2sccc21` (stereo not drawn) [1-methyl-3-(4-methyl-4,5,6,7-tetrahydrobenzo[b]thien-4-yl)urea] registered a change in vivo at 400 ppm of 39%. With `O=C(NC1CCCc2sccc21)N1CCc2ccccc2C1` (stereo not drawn), the change in vivo at 400 ppm worked out at 7%. In turn, `O=C(NO)NC1CCCc2sccc21` (stereo not drawn) [Table VI: O,H,H,H,H,OH, 1-hydroxy-3-(4,5,6,7-tetrahydrobenzo[b]thien-4-yl)urea] came in with a change in vivo at 400 ppm of 103%. Still for that read-out and setting: to `CN(Cc1ccccc1)C(=O)NC1CCCc2sccc21` (stereo not drawn) [Table VI: O,H,H,H,CH3,CH2C6H5] belongs 14%.

Take `C#CCN(Cc1ccccc1)C(=O)NC1CCCc2sccc21` (stereo not drawn) [Table VI: O,H,H,H,CH2C6H5,CH2CCH]: the change in vivo at 400 ppm is 30%.

The compound `O=C(NCc1cccnc1)NC1CCCc2sccc21` (stereo not drawn) yielded a change in vivo at 400 ppm of 48%. Compound `CNC(=O)NC1CCC(C)(C)c2sccc21` (stereo not drawn) [1-methyl-3-(7,7-dimethyl-4,5,6,7-tetrahydrobenzo-[b]thien-4-yl)urea] came in with a change in vivo at 400 ppm of 15%. Consider `O=C(NCc1ccc(Cl)cc1)NC1CCCc2sccc21` (stereo not drawn), for which the change in vivo at 400 ppm amounted to 1%. In the case of `CON(C)C(=O)NC1CCCc2sccc21` (stereo not drawn) [Table VI: O,H,H,H,CH3,OCH3, 1-methoxy-1-methyl-3-(4,5,6,7-tetrahydrobenzo[b]thien-4-yl)urea], the change in vivo at 400 ppm came to 107%. Take `CC(C)NC(=O)NC1CCCc2sccc21` (stereo not drawn) [Table VI: O,H,H,H,H,CH(CH3)2, 1-isopropyl-3-(4,5,6,7-tetrahydrobenzo[b]thien-4-yl)urea]: the change in vivo at 400 ppm came out at 88%. On the same count and under the same terms, to `O=C(NCc1cccs1)NC1CCCc2sccc21` (stereo not drawn) belongs 39%; to `CN(C(N)=O)C1CCCc2sccc21` (stereo not drawn) [Table VI: O,H,H,CH3,H, 1-methyl-1-(4,5,6,7-tetrahydrobenzo[b]-thien-4-yl)urea], 27.2%; to `O=C(NCc1ccncc1)NC1CCCc2sccc21` (stereo not drawn), 46%. For the compound `O=C(NC1CCCc2sccc21)N1CCNCC1` (stereo not drawn), the change in vivo at 400 ppm turned out to be 3%. Same read-out and setting: to `CN(O)C(=O)NC1CCCc2sccc21` (stereo not drawn) [Table VI: O,H,H,H,CH3,OH, 1-hydroxy-1-methyl-3-(4,5,6,7-tetrahydrobenzo[b]thien-4-yl)urea] belongs 49.6%.

Staying with this assay, now noted: Mus musculus, feed or water, 288 h, Table VII; 200 ppm in diet.
Take `CON(C)C(=O)NC1CCC(=O)c2sccc21` (stereo not drawn) [Table VII: O,CH3,OCH3, 1-methoxy-1-methyl-3-(4,5,6,7-tetrahydro-7-oxobenzo[b]thien-4-yl)urea]: the change in vivo at 200 ppm turned out to be 62.6%. The same measure, in the same setting: to `CN(O)C(=O)NC1CCC(=O)c2sccc21` (stereo not drawn) [Table VII: O,CH3,OH] belongs 31.3%; to `CONC(=O)NC1CCC(=O)c2sccc21` (stereo not drawn) [Table VII: O,H,OCH3], 71%.

Still in this assay, the particulars now being: Mus musculus, feed or water, 288 h, Table VII; 400 ppm in diet.
In the case of `CNC(=O)NC1CCC(=O)c2sccc21` (stereo not drawn) [Table VII: O,H,CH3, 1-methyl-3-(4,5,6,7-tetrahydro-7-oxobenzo[b]thien-4-yl)urea], the change in vivo at 400 ppm was 64.8%. The compound `C=CCNC(=O)NC1CCC(=O)c2sccc21` (stereo not drawn) [Table VII: O,H,CH2CHCH2] showed a change in vivo at 400 ppm of 58.7%. Consider `O=C(NC(=O)C(Cl)(Cl)Cl)NC1CCC(=O)c2sccc21` (stereo not drawn), for which the change in vivo at 400 ppm worked out at 62.2%. `CNC(=S)NC1CCC(=O)c2sccc21` (stereo not drawn) [Table VII: S,H,CH3] returned a change in vivo at 400 ppm of 62.5%.

The compound `NC(=O)NC1CCC(=O)c2sc(Br)cc21` (stereo not drawn) [2-bromo-4,5,6,7-tetrahydro-7-oxobenzo[b]thien-4-ylurea] came in with a change in vivo at 400 ppm of 35.9%.

As to `CCCCCCCCCCCCNC(=O)NC1CCC(=O)c2sccc21` (stereo not drawn) [Table VII: O,H,n-C12H25, 1-n-dodecyl-3-(4,5,6,7-tetrahydro-7-oxobenzo[b]thien-4-yl)urea], the change in vivo at 400 ppm was 4.1%.

Staying with this assay, now noted: Mus musculus, feed or water, 288 h, Table VIII; 200 ppm in diet.
Compound `NC(=O)NC1CCC(O)c2sccc21` (mixture of isomers) [Table VIII: O,H,H (mixture of dextrorotatory diastereomers, 62% isomer B)] showed a change in vivo at 200 ppm of 13.5%.

The assay is the same for the next values; noted with them: Mus musculus, feed or water, 288 h, Table VIII; 400 ppm in diet.
`CONC(=O)NC1CCC(O)c2sccc21` (stereo not drawn) [Table VIII: O,H,OCH3, 1-methoxy-3-(7-hydroxy-4,5,6,7-tetrahydrobenzo[b]thien-4-yl)urea]: the change in vivo at 400 ppm was 66.7%. Turning to `COCNC(=O)NC1CCC(O)c2sccc21` (stereo not drawn) [Table VIII: O,H,CH2OCH3, 1-(methoxymethyl)-3-(4,5,6,7-tetrahydro-7-hydroxybenzo[b]thien-4-yl)urea], the change in vivo at 400 ppm turned out to be 124%. Same read-out and setting: to `C=CCNC(=O)NC1CCC(O)c2sccc21` (stereo not drawn) [Table VIII: O,H,CH2CHCH2, 1-allyl-3-(7-hydroxy-4,5,6,7-tetrahydrobenzo[b]thien-4-yl)-urea] belongs 29.1%.

Still in this assay, the particulars now being: Table VIII; 25 ppm in diet.
For `NC(=O)NC1CCC(O)c2sccc21` (single isomer, unassigned; (-)) [Table VIII: O,H,H (levorotatory diastereomer, 91.5% isomer B)], the “& Weight Gain Over Controls” value amounted to 74.5%.
